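Interpolation was linear, between the two tested concentrations surrounding the appropriate level; five concentrations were tested over 48 hours in 96-well plates. TGI denotes the concentration required for complete inhibition of growth.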
Tests used:
Experiment in all cases: NCI tumour cell line growth inhibition, 48 h
MOLT-4 leukemia = test system: MOLT-4 leukemia
SK-MEL-5 melanoma = test system: SK-MEL-5 melanoma
IGROV1 ovarian = test system: IGROV1 ovarian
EKVX NSCLC = test system: EKVX NSCLC
HT29 colon = test system: HT29 colon
UACC-62 melanoma = test system: UACC-62 melanoma
NCI-H522 lung = test system: NCI-H522 lung
LOX IMVI melanoma = test system: LOX IMVI melanoma
NCI-H226 lung = test system: NCI-H226 lung
SW-620 colon = test system: SW-620 colon
HCT-15 colon = test system: HCT-15 colon
RPMI-8226 leukemia = test system: RPMI-8226 leukemia
SF-295 CNS = test system: SF-295 CNS
HOP-92 NSCLC = test system: HOP-92 NSCLC
CCRF-CEM leukemia = test system: CCRF-CEM leukemia
HCC-2998 colon = test system: HCC-2998 colon

SMILES	TGI (MOLT-4 leukemia) [µM]	TGI (SK-MEL-5 melanoma) [µM]	TGI (IGROV1 ovarian) [µM]	TGI (EKVX NSCLC) [µM]	TGI (HT29 colon) [µM]	TGI (UACC-62 melanoma) [µM]	TGI (NCI-H522 lung) [µM]	TGI (LOX IMVI melanoma) [µM]	TGI (NCI-H226 lung) [µM]	TGI (SW-620 colon) [µM]	TGI (HCT-15 colon) [µM]	TGI (RPMI-8226 leukemia) [µM]	TGI (SF-295 CNS) [µM]	TGI (HOP-92 NSCLC) [µM]	TGI (CCRF-CEM leukemia) [µM]	TGI (HCC-2998 colon) [µM]
COc1ccc(/C=C2\N=C(SC)N(CN3CCCCC3)C2=O)cc1	> 100	> 100	> 100	> 100	> 100	> 100	> 100	> 100	> 100	> 100	> 100	> 100	> 100	> 100		
CC(C)C(Sc1nc(-c2ccccc2)c(-c2ccccc2)[nH]1)C(=O)NN (stereo not given)	> 100	> 100	> 100		> 100		> 100	> 100	> 100	> 100	> 100	> 100	> 100	> 100	> 100	
O=c1n(-c2ccccc2)c(=O)n2n1C1Cc3ccccc3C12 (stereo not given)	> 100	> 100	> 100	> 100	> 100	> 100		> 100	> 100	> 100	> 100	> 100	> 100	> 100	> 100	
COC(=O)c1c2c(cc3c1CC1(Cc4ccc(C(C)=O)cc4C1)C3)CCC2 (stereo not given)	86.5	45.4	> 100	> 100	89	> 100	> 100	60.2	> 100	> 100	> 100	> 100	> 100	> 100	> 100	
COCn1cnc2c(=O)n(-c3ccc(OC)cc3)c(=S)n(-c3ccc(OC)cc3)c21	> 100	> 100	> 100	> 100	> 100	> 100	> 100	> 100	> 100	> 100	> 100	> 100	> 100		> 100	> 100
CN1CCCOC(c2ccc([N+](=O)[O-])cc2)O1 (stereo not given)	> 100	> 100	> 100	> 100	> 100	> 100	> 100	> 100	> 100	> 100	> 100		> 100	> 100	> 100	> 100
Cc1ccc(C(=O)Nc2ccc(CP(=O)(O)O)cc2CP(=O)(O)O)cc1NC(=O)c1cccc(NC(=O)Nc2cccc(C(=O)Nc3cc(C(=O)Nc4ccc(CP(=O)(O)O)cc4CP(=O)(O)O)ccc3C)c2)c1	> 100	> 100	> 100	> 100	> 100	> 100	> 100	> 100	> 100	> 100	> 100	> 100	> 100		> 100	> 100
COc1ccc(OC2OC(COC(c3ccccc3)(c3ccc(OC)cc3)c3ccc(OC)cc3)C(O)C(O)C2O)cc1 (stereo not given)	4.55	16.1	20.2	17.3	5.96	14.1	11.7	3.95	28.3	14.3	46.4	> 100	15		5.39	16.4
N#Cc1cc(-c2nc3c(F)cccc3s2)ccc1N	> 100	> 100	> 100	0.894	> 100	> 100	> 100	> 100	> 100	> 100	> 100	> 100	> 100	> 100	> 100	
O=C(c1ccccc1)N1OCCC1Nc1ccc(Br)cc1 (stereo not given)	> 10	> 10	> 10	> 10	> 10		> 10	> 10	> 10	> 10	> 10	> 10	> 10		> 10	> 10
NC1CC(Cl)c2c(Cl)sc(Cl)c21 (stereo not given)	> 100	> 100	> 100	> 100	> 100	> 100	0.049	> 100	> 100	> 100	> 100		> 100	> 100	> 100	> 100
CC1OC(OC2C(OC(=O)[C@@H]3CC(C)(C)C[C@@H]4C5=CC[C@@H]6[C@@]7(C)C[C@H](O)[C@H](OC8OC(CO)C(O)C(O)C8O)[C@@](C)(CO)C7[C@H](O)C[C@@]6(C)[C@]5(C)C[C@@H](O)[C@H]43)OCC(O)C2O)C(O)C(O)C1O (stereo not given in full)	> 15	> 15	> 15	> 15	> 15	> 15	> 15	> 15	> 15	> 15	> 15		> 15	> 15	> 15	> 15

— PubChem BioAssay (NCI)
